The values below come from US4292319A, “Antiphlogistic pharmaceutical compositions and method of use” (Boehringer Ingelheim GmbH, priority 1977, dated 1981).

For data set [1], the system named is kaolin-induced edema of the rat's hind paw. Description: Test for antiphlogistic effect against the kaolin-induced edema of the rat's hind paw. Particulars: oral, rat; for ED35: Rattus norvegicus, po, 5 h, kaolin edema, read-out: ED35; for Thickness of the paw (mean): 5 h after kaolin. It counts as in vivo, rat (Chbb:THOM). The method, then: (2) Test for antiphlogistic effect against the kaolin-induced edema of the rat's hind paw (tested substances: A, B, C and D)
The test was carried out on male Chbb:THOM-rats with a body weight between 125 and 150 gm. According to HILLEBRECHT [Arzneimittel-Forsch. 4, 607 (1954)], a subplantary injection of 0.05 ml of a 10% suspension of kaolin in an aqueous 0.85% sodium chloride solution in the hind paw was used for the provocation of the kaolin edema. The other hind paw was subplantarily injected with the same volume of an aqueous 0.85% sodium chloride solution.
The measurement of the thickness of the paws was carried out using the technique of DOEPFNER and […] [Int. Arch. Allergy appl. Immunol. 12, 89 (1958)] by way of the determination of the maximum sagittal diameter, using a measuring device with constant pressure, before and 5 hours after the provocation of the edema.
The test substances (the non-steroidal antiphlogistics or the mixture of non-steroidal antiphlogistics with pirenzepine dihydrochloride) were administered 30 minutes before provocation of the edema as a trituration in 1% tylose (1 ml/[…]) by way of an esophageal tube.
The diameter of the paw measured before the beginning of the test as well as the increase in diameter of the other paw caused by injection were subtracted from the diameter of the kaolin-treated paw, and this difference, being the real swelling value, was used for the further calculations.
(§1) From the swelling values obtained by administration of different dosages of non-steroidal antiphlogistics with or without the addition of pirenzepine dihydrochloride, using a linear regression analysis according to LINDNER [Statistische Methoden, 4th Ed., pages 148-162, Birkhauser, Basel, Switzerland (1964)], the ED35 values of the antiphlogistics were calculated with the confidence limits according to FIELLER [Quart. J. Pharm. Pharmacol. 17, 117 (1944)], the ED35 being the dosage which reduces the swelling of the paws by 35% in comparison to the control animals.

Data set [2] relates to stomach of the rat. Nature of the data set: Test for ulcerogenic effect on the stomach of the rat. It counts as in vivo, rat (Chbb:THOM). Particulars: oral, 3 subsequent days. The method, then: (§2) (1) Test for ulcerogenic effect on the stomach of the rat
(§3) The test was carried out on male and female (1:1) Chbb:THOM-rats with a body weight between 130 to 150 gm at the beginning of the study.
(§4) The test substances (non-steroidal anti-phlogistics or mixtures of these antiphlogistics with pirenzepine dihydrochloride) were administered as triturations in 1% tylose (1 ml/100 gm animal) by way of an esophageal tube once a day on three successive days.
(§5) Four hours after the last administration (i.e. on the 3rd day) the animals were killed by an over-dose of ether. The stomachs wer dissected, cut along the great curvature and washed under flowing water for subsequent macroscopic evaluation.

For data set [3], the system named is carrageenin-induced edema of the hind paw of the rat. Nature of the data set: Test for antiphlogistic effect against the carrageenin-induced edema of the hind paw of the rat. It counts as in vivo. Particulars: rat; for ED35: Rattus norvegicus, po, 3 h, carrageenin edema; for Thickness of the paw (mean): 3 h after carrageenin. As for the experimental part:
The test was carried out in analogy to the above test for the kaolin-induced edema. However, the edema was induced according to the method of WINTER et al. [J. Pharmacol. 141, 369 (1963)] by subplantary injection of 0.05 ml of a 1% solution of carrageenin in an aqueous 0.85% solution of sodium chloride. […] Three hours after the provocation of the edema the measurement which provided the basis for the evaluation of an anti-exudative effect was carried out.
as §1
(In the carrageenan paw model, swelling and tenderness develop within hours.)

The nature of data set [4]: Test for ulcerogenic effect on the stomach of the rat. It counts as in vivo, rat (Chbb:THOM). As to conditions: in vivo, po, oral, 3 subsequent days, read-out: ED50-ulcer. As for the experimental part: as §2, §3, §4, §5

The structures appear in SMILES notation. Where a name gives a salt, the structure may show the parent alone. Read-outs that look alike come from different tables or passages of the source.

Take `O=C(O)C=CC(O)c1ccc(-c2ccccc2F)cc1` (stereo not shown) [C, 4-[4-(2'-fluoro-biphenylyl)]-4-hydroxy-crotonic acid morpholine salt]: the ED35 turned out to be 17.6 mg/kg in data set [1] (with A 100 mgm/kg) and 15.3 mg/kg in data set [1] (without A). Besides, the “Thickness of the paw (mean)” value is on record as 215.6 10^-2 mm in data set [1] (antiphlogistic 6.25 mgm/kg + A 100 mgm/kg); 203.9 10^-2 mm in data set [1] (antiphlogistic 6.25 mgm/kg, without A); 187.0 10^-2 mm in data set [1] (antiphlogistic 12.25 mgm/kg + A 100 mgm/kg); 179.5 10^-2 mm in data set [1] (antiphlogistic 12.5 mgm/kg, without A); 166.0 10^-2 mm in data set [1] (antiphlogistic 25 mgm/kg + A 100 mgm/kg); 164.3 10^-2 mm in data set [1] (antiphlogistic 25 mgm/kg, without A). Besides, the “Thickness of the paw (mean)” value in data set [1] (antiphlogistic 50 mgm/kg + A 100 mgm/kg) is 149.3 10^-2 mm; in data set [1] (antiphlogistic 50 mgm/kg, without A), 138.0 10^-2 mm; in data set [1] (antiphlogistic 100 mgm/kg, without A), 93.8 10^-2 mm. The “Ratio of animals with ulcers” value in data set [2] (antiphlogistic 52 mgm/kg, without A) is given as 5/12; in data set [2] (antiphlogistic 62 mgm/kg + A 50 mgm/kg), 4/15; in data set [2] (antiphlogistic 62 mgm/kg, without A), 8/12; in data set [2] (antiphlogistic 74 mgm/kg + A 50 mgm/kg), 8/17; in data set [2] (antiphlogistic 74 mgm/kg + A 100 mgm/kg), 0/15; in data set [2] (antiphlogistic 74 mgm/kg, without A) it was 10/12. The “Ratio of animals with ulcers” value in data set [2] (antiphlogistic 88 mgm/kg + A 50 mgm/kg) was 9/17; in data set [2] (antiphlogistic 88 mgm/kg + A 100 mgm/kg) it was 4/15; in data set [2] (antiphlogistic 106 mgm/kg + A 50 mgm/kg) it was 11/17; in data set [2] (antiphlogistic 106 mgm/kg + A 100 mgm/kg), 3/15; in data set [2] (antiphlogistic 127 mgm/kg + A 100 mgm/kg), 7/15; in data set [2] (antiphlogistic 153 mgm/kg + A 100 mgm/kg), 8/15.

Regarding `O=C([O-])Cc1ccccc1Nc1c(Cl)cccc1Cl.[Na+]` [E, sodium [o-(2,6-dichloro-anilino)-phenyl]acetate], the ED35 is 4.3 mg/kg in data set [3] (with A 400 mgm/kg) and 5 mg/kg in data set [3] (without A). Further, the “Thickness of the paw (mean)” value in data set [3] (antiphlogistic 1.5 mgm/kg + A 400 mgm/kg, oral) is 209.5 10^-2 mm; in data set [3] (antiphlogistic 1.5 mgm/kg, without A, oral), 209.5 10^-2 mm; in data set [3] (antiphlogistic 3.0 mgm/kg + A 400 mgm/kg, oral), 181.5 10^-2 mm; in data set [3] (antiphlogistic 3 mgm/kg, without A, oral), 188.5 10^-2 mm; in data set [3] (antiphlogistic 6.0 mgm/kg + A 400 mgm/kg, oral), 162.5 10^-2 mm; in data set [3] (antiphlogistic 6 mgm/kg, without A, oral), 170.0 10^-2 mm. Moreover, the “Thickness of the paw (mean)” value in data set [3] (antiphlogistic 12.0 mgm/kg + A 400 mgm/kg, oral) is given as 148.5 10^-2 mm; in data set [3] (antiphlogistic 12 mgm/kg, without A, oral) it was 154.0 10^-2 mm. Besides, the TD50 in data set [4] (with A 200 mgm/kg) was determined as 4.05 mg/kg; in data set [4] (with A 400 mgm/kg), 5.63 mg/kg; in data set [4] (without A), 2.95 mg/kg. Moreover, the “Ratio of animals with ulcers” value in data set [2] (antiphlogistic 2 mgm/kg + A 200 mgm/kg) is reported as 3/20; in data set [2] (antiphlogistic 2 mgm/kg + A 400 mgm/kg), 1/20; in data set [2] (antiphlogistic 2 mgm/kg, without A), 5/20; in data set [2] (antiphlogistic 4 mgm/kg + A 200 mgm/kg), 9/20; in data set [2] (antiphlogistic 4 mgm/kg + A 400 mgm/kg), 7/20; in data set [2] (antiphlogistic 4 mgm/kg, without A), 14/20. For the same molecule, the “Ratio of animals with ulcers” value in data set [2] (antiphlogistic 8 mgm/kg + A 200 mgm/kg) was 17/19; in data set [2] (antiphlogistic 8 mgm/kg + A 400 mgm/kg), 13/20; in data set [2] (antiphlogistic 8 mgm/kg, without A) it was 19/20; in data set [2] (antiphlogistic 16 mgm/kg + A 200 mgm/kg), 20/20; in data set [2] (antiphlogistic 16 mgm/kg + A 400 mgm/kg), 19/20.

For the molecule `COc1ccc2cc([C@H](C)C(=O)O)ccc2c1` [F, d-2-(6-methoxy-2-naphthyl)-propionic acid], the ED35 was found to be 3 mg/kg in data set [3] (with A 400 mgm/kg, oral, read-out: ED35) and 2.8 mg/kg in data set [3] (without A, oral, read-out: ED35). For the same molecule, the “Thickness of the paw (mean)” value is reported as 192.2 10^-2 mm in data set [3] (antiphlogistic 2 mgm/kg + A 400 mgm/kg, oral); 188.5 10^-2 mm in data set [3] (antiphlogistic 2 mgm/kg, without A, oral); 168.5 10^-2 mm in data set [3] (antiphlogistic 4 mgm/kg + A 400 mgm/kg, oral); 157.5 10^-2 mm in data set [3] (antiphlogistic 4 mgm/kg, without A, oral); 133.3 10^-2 mm in data set [3] (antiphlogistic 8 mgm/kg + A 400 mgm/kg, oral); 118.0 10^-2 mm in data set [3] (antiphlogistic 8 mgm/kg, without A, oral).
